Reference: US11786525B1, “High-efficiency anti-tumor nano-drug delivery system containing hydralazine and preparation method thereof” (SHANGHAI INSTITUTE FOR ADVANCED STUDY ZHE JIANG UNIVERSITY, priority 2022, dated 2023)

Key:
[1] = tested on: vascular epithelial cells (HUVEC); test: Cytotoxicity to HUVEC cells; assay type: cell-based; details: incubated 48 h, different concentrations
Experimental: (§1) At the cellular level, the cytotoxicity of HDZ to cells is first tested. HDZ at different concentrations is incubated with mouse breast cancer cells (4T1), human breast cancer cells (MBA-MD-231), and vascular epithelial cells (HUVEC) for 48 h. […] Then, the cytotoxicity of D-NPs, C-NPs, H-NPs, and DOX with 4T1, MBA-MD-231, and HUVEC cells is subsequently tested. The experimental results are shown in FIG. 3B, FIG. 3C and FIG. 3D. […] This is because there is a polypeptide cRGD on the surface of C-NPs targeting the integrin αvβ3 overexpressed on the surface of 4T1 and MBA-MD-231 tumor cells, which can make more C-NPs enter the tumor cells and improve their cytotoxicity.

[2] = tested on: human breast cancer cells (MBA-MD-231); test: Cytotoxicity to MBA-MD-231 cells; assay type: cell-based; details: incubated 48 h, different concentrations
Experimental: as §1

[3] = tested on: mouse breast cancer cells (4T1); test: Cytotoxicity to 4T1 cells; assay type: cell-based; details: incubated 48 h, different concentrations
Experimental: as §1

[4] = tested on: 4T1 tumor-bearing mice; test: Biodistribution in 4T1 tumor-bearing mice (tissue grinding, fluorescence analysis); assay type: in vivo; details: at 48 h versus 24 h
Experimental: In addition, in order to detect the difference in the distribution of free doxorubicin, D-NPs and H-NPs in tumors and other organs, 4T1 tumor-bearing mice are sacrificed at different time intervals after intravenous injection of different drugs, the organs of the mice are taken out for tissue grinding and extraction, and finally fluorescence analysis is performed. It can be seen that compared with free doxorubicin, D-NPs and H-NPs have higher enrichment rates in various organs and tumors of mice, which are about 1.52 and about 1.81 times (24 h) higher than free doxorubicin, respectively. […] From the above cytotoxicity and blood circulation experiments, it can be inferred that this is because compared with free doxorubicin, D-NPs and H-NPs have longer blood circulation capacity in the blood and are not easy to be cleared by cells.

change of enrichment in the tumor site with extension of time [4]	Compound	cytotoxicity [1]	cytotoxicity [2]	cytotoxicity [3]
	NNc1nncc2ccccc12 [HDZ, hydralazine]	not very toxic	not very toxic	not very toxic
decreases	COc1cccc2c1C(=O)c1c(O)c3c(c(O)c1C2=O)C[C@@](O)(C(=O)CO)C[C@@H]3O[C@H]1C[C@H](N)[C@H](O)[C@H](C)O1 [free doxorubicin, doxorubicin]			
